Literature values, collected in patent publication US20160021884A1, “STABLE SOLUTIONS OF 1,2-BENZISOTHIAZOLIN-3-ONE” (TITAN CHEMICALS LIMITED, priority 2014, published 2016).

Details: 5° C., 4 weeks

Stability of purely aqueous solution: stable at 5 °C for 4 weeks
Compound: O=c1[n-]sc2ccccc12.[Li+] [lithium salt of BIT]
